# According to patent US9617281B2, “Imidazo[2,1-b]thiazole derivatives, their preparation and use as medicaments” (LABORATORIOS DEL DR. ESTEVE S.A., priority 2012, dated 2017):
# Where a name gives a salt, the structure may show the parent alone.
# Molecular target: σ1-receptor (Cavia porcellus (Guinea pig), UniProt Q60492)
# Experiment: σ1-receptor binding assay with [3H]-(+)-pentazocine in guinea pig brain membranes
# Conditions: radioligand [3H]-(+)-pentazocine 5.0 nM, 150 min at 37° C.
# Procedure: Brain membrane preparation and binding assays for the σ1-receptor were performed as described (DeHaven-Hudkins, D. L., L. C. Fleissner, and F. Y. Ford-Rice, 1992, Characterization of the binding of [^3H](+)pentazocine to a recognition sites in guinea pig brain, Eur. J. Pharmacol. 227, 371-378) with some modifications. Guinea pig brains were homogenized in 10 vols. (w/v) of Tris-HCl 50 mM 0.32 M sucrose, pH 7.4, with a Kinematica Polytron PT 3000 at 15000 r.p.m. for 30 s. The homogenate was centrifuged at 1000 g for 10 min at 4° C. and the supernatants collected and centrifuged again at 48000 g for 15 min at 4° C. The pellet was resuspended in 10 volumes of Tris-HCl buffer (50 mM, pH 7.4), incubated at 37° C. for 30 min, and centrifuged at 48000 g for 20 min at 4° C. Following this, the pellet was re-suspended in fresh Tris-HCl buffer (50 mM, pH 7.4) and stored on ice until use.
# The radioligand used was [^3H]-(+)-pentazocine at 5.0 nM and the final volume was 200 μl. The incubation was initiated with the addition of 100 μl of membrane at a final tissue concentration of approximately 5 mg tissue net weight/mL and the incubation time was 150 m. at 37° C. After incubation, the membranes were collected onto pretreated glass fiber filterplate (MultiScreen-FC, Millipore), with polyethylenimine 0.1%. The filters were washed two times with 200 μl of washing buffer (50 mM Tris Cl, pH=7.4) and then 25 μl of Ecoscint H liquid scintillation cocktail were added. Microplates were allowed to set for several hours and then quantified by liquid scintillation spectrophotometry (1450 Microbeta, Wallac). Nonspecific binding was determined with 1 μM haloperidol.
# σ1-receptor, sequence (Q60492 whole entry): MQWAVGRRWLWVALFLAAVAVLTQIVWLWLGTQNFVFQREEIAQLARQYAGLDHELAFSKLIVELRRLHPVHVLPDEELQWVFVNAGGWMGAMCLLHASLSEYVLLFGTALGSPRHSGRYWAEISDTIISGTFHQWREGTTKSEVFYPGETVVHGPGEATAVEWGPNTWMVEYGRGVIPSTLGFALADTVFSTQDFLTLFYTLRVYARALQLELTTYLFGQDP
row,Compound,Ki [nM]
1,"c1ccc(-c2nn3cc(COCCN4CCCCCC4)nc3s2)cc1 [Compound 4, 6-((2-(azepan-1-yl)ethoxy)methyl)-2-phenylimidazo[2,1-b][1,3,4]thiadiazole maleate]",168
2,"c1ccc(-c2cn3cc(CN4CCCCCC4)nc3s2)cc1 [Compound 6, 6-(azepan-1-ylmethyl)-2-phenylimidazo[2,1-b]thiazole maleate]",16
3,"c1ccc(-c2cn3cc(COCCN4CCCCCC4)nc3s2)cc1 [Compound 9, 6-((2-(azepan-1-yl)ethoxy)methyl)-2-phenylimidazo[2,1-b]thiazole maleate]",40
4,"c1ccc(-c2cn3cc(COCCN4CCCC4)nc3s2)cc1 [Compound 10, 2-phenyl-6-((2-(pyrrolidin-1-yl)ethoxy)methyl)imidazo[2,1-b]thiazole maleate]",190
5,"c1ccc(-c2cn3cc(CN4CCCCCC4)sc3n2)cc1 [Compound 12, 2-(azepan-1-ylmethyl)-6-phenylimidazo[2,1-b]thiazole maleate]",100

# The next lines start with the values.
row,Ki [nM],Compound
1,56,"CN1CCN(Cc2cn3cc(-c4ccccc4)sc3n2)CC1 [Compound 7, 6-((4-methylpiperazin-1-yl)methyl)-2-phenylimidazo[2,1-b]thiazole maleate]"
2,260,"CN1CCN(Cc2cn3nc(-c4ccccc4)sc3n2)CC1 [Compound 11, 6-((4-methylpiperazin-1-yl)methyl)-2-phenylimidazo[2,1-b][1,3,4]thiadiazole maleate]"
3,210,"CN1CCN(Cc2cn3cc(-c4ccc(F)cc4)sc3n2)CC1 [Compound 13, 2-(4-fluorophenyl)-6-((4-methylpiperazin-1-yl)methyl)imidazo[2,1-b]thiazole maleate]"
